These results are taken from ChEMBL document CHEMBL1128135, “Synthesis and biological evaluation of new arylthiophene analogs of DuP 753” (Bioorg Med Chem Lett, 1995).

For the test, the species on record is Oryctolagus cuniculus. Kind of test: In vitro antagonist activity was determined by the ability to antagonize the contractile response to angiotensin II in the isolated rabbit aortic strips. It counts as functional. Conditions: Aorta.
`CCCCc1nc(Cl)c(CO)n1Cc1ccc(-c2ccccc2C(=O)O)cc1` had an IC50 of 120 nM.
`CCCCc1nc(Cl)c(CO)n1Cc1ccc(-c2ccccc2-c2nn[nH]n2)s1` showed an IC50 of 328 nM.
Then `CCCCc1nc(Cl)c(C=O)n1Cc1ccc(-c2ccccc2C(=O)O)s1`, with 2000 nM; and `CCCCc1nc(Cl)c(CO)n1Cc1ccc(-c2ccccc2C(=O)O)s1`, with 4160 nM.
In the case of `CCCCc1nc(Cl)c(C=O)n1Cc1ccc(-c2ccccc2-c2nn[nH]n2)s1`, the IC50 was 330 nM.
Next, `CCCCc1nc(Cl)c(CO)n1Cc1ccc(-c2ccccc2-c2nnn[nH]2)cc1` [LOSARTAN]: 6.1 nM.
